Results from PMC11249953, “c-KIT inhibitors reduce pathology and improve behavior in the Tg(SwDI) model of Alzheimer’s disease” (Life Science Alliance, 2024).
Several values for one entry are separate records, joined by “and”; a condition that tells them apart may be missing. Equal entries are not always repeated.

How the values were obtained:
[1] = tested on: peripheral mast cells of TgAPP mice; assay: In vivo mast cell analysis (flow cytometry of whole blood, CD117 / FcεR1); set-up: species or system mouse; key to CD117 (single-labelled mast cells): % of single-labelled (CD117+) mast cells; CD117 Total: unit not given here; conditions: for ratio of immature-to-mature mast cells (c-KIT+ versus c-KIT+/FcεR1α+) in whole blood: TgAPP mice, BK40143 5 mg/kg, BK40197 45 mg/kg, 6 wk, vs DMSO
Excerpt: c-KIT is responsible for mast cell development and homeostasis ([Lake et al, 1978]; [Linnekin, 1999]; [Kitamura et al, 2006]). TKs are the central driving force for processes leading to mast cell activation ([Parravicini et al, 2002]; [Gomez et al, 2005]). Multiple receptors are capable of mediating or modifying mast cell activation ([Kraft & Kinet, 2007]; [Kuehn & Gilfillan, 2007]), the major receptor responsible being FcεRI, the high affinity receptor for immunoglobulin E (IgE) ([Rivera & Gilfillan, 2006]). Mast cells are tissue-resident cells of hematopoietic lineage which are derived from CD13^+CD34^+KIT(CD117)^+ bone marrow pluripotent progenitors ([Kirshenbaum et al, 1999]). Although mast cells play an important role in the innate immune system ([Marshall, 2004]; [Galli et al, 2005]), these cells are also responsible for the detrimental exaggerated reactions to antigen ([Galli et al, 2008]) that follow the release of potent inflammatory mediators as a consequence of receptor-mediated mast cell activation ([Metcalfe et al, 1997]). The progression of these cells to fully mature mast cells is dependent on c-KIT activation which occurs because of stem cell factor-induced c-KIT dimerization and auto-phosphorylation ([Kirshenbaum et al, 1999]). To verify the functional effects of BK40143 and BK40197 on c-KIT inhibition, we investigated whether inhibition of c-KIT with BK40143 and BK40197 affects peripheral mast cell populations in vivo. We collected whole blood samples from Tg(SwDI) (referred to as TgAPP) mice treated with 5 or 45 mg/kg of each drug, respectively, or DMSO for 6 wk before isolating mast cells for analysis via flow cytometry (Fig 3A–C). Whole blood was sorted for mast cells using a triple gating strategy: 647 anti-CD45 to isolate leukocytes, PE anti-c-KIT to isolate mast cells, and APC/fire anti-FcεR1α to identify mature mast cells. The ratio of immature-to-mature mast cells (c-KIT+ versus c-KIT+/ FcεR1α+) was compared between c-KIT inhibited and DMSO-treated controls to determine the functional consequence of c-KIT inhibition on peripheral mast cell maturation.
Whole blood samples were harvested from the right ventricle of treated and untreated mice and added to 1,000 U/ml heparin-coated tubes to prevent coagulation. 100 μl of blood was then treated with three flow-conjugated antibodies: 647 anti-mouse CD45 (cat. #103123; BioLegend), PE anti-mouse CD117 (c-KIT) (cat. # 105807; BioLegend), and APC/fire 750 anti-mouse FcεR1α (cat. #134339; BioLegend) for 30 min, then treated with 1x RBC lysis buffer (cat. #420301; BioLegend) for 20 min. Cells were washed and resuspended in cell staining buffer before being analyzed on a Becton Dickinson LSRFortessas flow cytometer. Immature-to-mature mast cell ratio was calculated by dividing the percentage of single-labelled (CD117+) mast cells by the total number of c-KIT expressing cells (CD117+ plus CD117+ FcεR1+). All animal work was approved by Georgetown University Animal Care and Use Committee (GUACUC).

ABL1 = target: T1, ABL1 (Homo sapiens, UniProt P00519); assay: KINOMEscan competition binding, ABL1; conditions: 10 µM compound; for remaining binding at 10 µM: lower = stronger binding, read-out: ABL1 %Ctrl @ 10000nM
T1 construct: DNA label for qPCR read-out (T7 phage fusion or DNA tag); purchased Eurofins DiscoverX Corporation; host or cells: T7 phage in E. coli (BL21-derived) or HEK-293
T1 sequence (P00519 whole entry, the tested form may be a part): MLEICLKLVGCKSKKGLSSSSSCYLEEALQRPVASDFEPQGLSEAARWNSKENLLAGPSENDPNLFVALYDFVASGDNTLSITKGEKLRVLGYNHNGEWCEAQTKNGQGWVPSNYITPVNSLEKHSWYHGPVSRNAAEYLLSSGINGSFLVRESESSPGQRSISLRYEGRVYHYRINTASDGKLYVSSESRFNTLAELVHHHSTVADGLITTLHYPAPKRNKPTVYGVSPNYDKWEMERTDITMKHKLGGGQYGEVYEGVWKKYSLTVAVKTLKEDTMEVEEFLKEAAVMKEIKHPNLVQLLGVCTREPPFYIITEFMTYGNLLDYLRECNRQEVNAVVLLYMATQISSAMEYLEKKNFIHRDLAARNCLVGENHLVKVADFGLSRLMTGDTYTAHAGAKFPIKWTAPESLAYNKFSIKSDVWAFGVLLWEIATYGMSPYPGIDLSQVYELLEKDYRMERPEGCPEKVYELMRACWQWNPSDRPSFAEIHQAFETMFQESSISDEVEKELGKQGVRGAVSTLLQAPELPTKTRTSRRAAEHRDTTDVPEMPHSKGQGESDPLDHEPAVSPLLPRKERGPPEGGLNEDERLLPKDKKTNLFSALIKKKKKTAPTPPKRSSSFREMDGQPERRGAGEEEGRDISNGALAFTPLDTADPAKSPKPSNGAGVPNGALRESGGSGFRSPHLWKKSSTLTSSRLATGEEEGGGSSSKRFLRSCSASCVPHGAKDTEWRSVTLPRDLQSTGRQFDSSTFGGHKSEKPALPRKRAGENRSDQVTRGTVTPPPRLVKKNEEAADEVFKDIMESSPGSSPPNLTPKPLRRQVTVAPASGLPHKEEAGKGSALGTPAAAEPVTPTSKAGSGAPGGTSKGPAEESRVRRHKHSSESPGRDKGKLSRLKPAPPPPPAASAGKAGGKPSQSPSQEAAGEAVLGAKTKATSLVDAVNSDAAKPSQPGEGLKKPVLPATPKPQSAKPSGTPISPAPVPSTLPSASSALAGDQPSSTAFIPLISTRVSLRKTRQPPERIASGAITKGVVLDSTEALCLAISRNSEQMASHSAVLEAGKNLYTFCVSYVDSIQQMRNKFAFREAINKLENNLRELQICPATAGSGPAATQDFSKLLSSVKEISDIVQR
Method: (§1) The KINOMEscan screening platform (Eurofins DiscoverX Corporation) was performed using active site-directed competition binding assay to quantitatively measure interactions between BK40143 and BK40197 and more than 450 human kinases and disease relevant mutant variants. […] Screening “hits” are identified by measuring the amount of kinase captured in test (BK40143 and BK40197) versus control samples by using a quantitative and ultra-sensitive qRT-PCR method that detects the associated DNA label. BK40143 and BK40197 were screened at 10 µM concentration, and results for primary screen binding interactions were reported as “% Ctrl” (POC), where lower numbers indicate stronger hits and calculated as follows: [test compound signal−positive control signal/negative control signal−positive control signal]×100
(§2) negative control = DMSO (100% Ctrl)
(§3) positive control = control compound (0% Ctrl)
(§4) Based on screening data from of profiled compounds, a proportional relationship between primary screening results and corresponding compound/target affinities can be described as binding constants (Kd values) for the indicated ranges of POC values with tighter binding (higher affinity) interactions associated with lower POC values and weaker binding (lower affinity) associated with higher POC values. Briefly, kinase-tagged T7 phage strains were grown in parallel in 24-well blocks in an E. coli host derived from the BL21 strain. E. coli were grown to log-phase and infected with T7 phage from a frozen stock (multiplicity of infection = 0.4) and incubated with shaking at 32°C until lysis (90–150 min). The lysates were centrifuged (6,000g) and filtered (0.2 μm) to remove cell debris. The remaining kinases were produced in HEK-293 cells and subsequently tagged with DNA for qRT-PCR detection. Streptavidin-coated magnetic beads were treated with biotinylated small molecule ligands for 30 min at RT to generate affinity resins for kinase assays. The liganded beads were blocked with excess biotin and washed with blocking buffer (1% BSA, 0.05% Tween 20, 1 mM DTT; SeaBlock [Pierce]) to remove unbound ligand and to reduce non-specific phage binding. Binding reactions were assembled by combining kinases, liganded affinity beads, and test compounds in 1x binding buffer (20% 0.17x PBS, 0.05% Tween 20, 6 mM DTT; SeaBlock). Test compounds were prepared as 100x stocks in 100% DMSO and directly diluted into the assay. All reactions were performed in polypropylene 384-well plates in a final volume of 0.02 ml. The assay plates were incubated at RT with shaking for 1 h and the affinity beads were washed with wash buffer (1x PBS, 0.05% Tween 20). […] The kinase concentration in the eluates was measured by qRT-PCR.

PDGFRa = target: T2, PDGFRa (Homo sapiens, UniProt P16234); assay: KINOMEscan competition binding, PDGFRa; conditions: 10 µM compound; for remaining binding at 10 µM: lower = stronger binding, read-out: PDGFRa %Ctrl @ 10000nM (POC)
T2 construct: DNA label for qPCR read-out (T7 phage fusion or DNA tag); purchased Eurofins DiscoverX Corporation; host or cells: T7 phage in E. coli (BL21-derived) or HEK-293
T2 sequence (P16234 24-1089): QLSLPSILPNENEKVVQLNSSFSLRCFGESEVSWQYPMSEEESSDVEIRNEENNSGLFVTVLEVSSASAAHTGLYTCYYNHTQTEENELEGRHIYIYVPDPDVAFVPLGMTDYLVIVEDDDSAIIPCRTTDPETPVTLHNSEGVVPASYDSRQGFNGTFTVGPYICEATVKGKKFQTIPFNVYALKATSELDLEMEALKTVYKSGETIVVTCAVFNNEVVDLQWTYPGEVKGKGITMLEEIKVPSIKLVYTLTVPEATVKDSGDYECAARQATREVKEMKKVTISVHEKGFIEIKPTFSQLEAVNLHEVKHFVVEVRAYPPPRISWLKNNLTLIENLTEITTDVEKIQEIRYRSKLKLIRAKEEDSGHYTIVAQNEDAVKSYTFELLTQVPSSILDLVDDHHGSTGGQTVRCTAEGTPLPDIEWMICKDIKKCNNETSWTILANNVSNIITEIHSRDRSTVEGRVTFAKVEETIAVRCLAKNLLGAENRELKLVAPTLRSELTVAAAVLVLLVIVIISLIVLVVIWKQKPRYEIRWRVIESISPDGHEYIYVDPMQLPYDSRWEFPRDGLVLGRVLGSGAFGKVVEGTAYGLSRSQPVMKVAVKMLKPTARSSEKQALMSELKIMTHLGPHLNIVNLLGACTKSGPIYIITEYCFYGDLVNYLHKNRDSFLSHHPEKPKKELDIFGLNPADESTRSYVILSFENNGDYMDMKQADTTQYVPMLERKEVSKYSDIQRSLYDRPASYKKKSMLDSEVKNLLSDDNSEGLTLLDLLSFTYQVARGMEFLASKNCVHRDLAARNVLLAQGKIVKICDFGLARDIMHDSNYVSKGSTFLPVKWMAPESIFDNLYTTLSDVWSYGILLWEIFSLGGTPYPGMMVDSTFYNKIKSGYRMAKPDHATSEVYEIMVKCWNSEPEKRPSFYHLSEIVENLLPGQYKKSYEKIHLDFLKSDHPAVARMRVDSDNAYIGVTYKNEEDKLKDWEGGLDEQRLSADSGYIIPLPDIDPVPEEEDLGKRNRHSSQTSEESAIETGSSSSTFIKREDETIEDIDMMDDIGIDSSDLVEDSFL
Method: as §1, §2, §3, §4

[2] = 5mg/kg, whole blood, individual mice

Compound | ratio of immature-to-mature mast cells (c-KIT+ versus c-KIT+/FcεR1α+) in whole blood [1] | inhibition at 10 µM (ABL1) [%] | remaining binding at 10 µM (ABL1) [%] | inhibition at 10 µM (PDGFRa) [%] | remaining binding at 10 µM (PDGFRa) [%] | CD117 (single-labelled mast cells) [1, 2] | CD117 / Total (immature-to-mature mast cell ratio) [1, 2] | CD117/FcER1 (double-labelled mast cells) [1, 2] | CD117 Total [1, 2]
Cc1cccc(-c2cc3nccc(N4CCOCC4)c3s2)c1 [BK40197] | not statistically significant (P = 0.07) increase in immature-to-mature mast cell ratio | 60 | 40 | 74 | 26 | – | – | – | –
Cc1cccc(-c2cc3nccc(Nc4ccccc4)c3s2)c1 [BK40143] | significantly greater ratio of immature-to-mature mast cells | 90 | 10 | 98.1 | 1 to 10 | 1.06 and 0.7 and 1.08 and 1.14 and 0.83 and 6.55 and 2.98 | 0.9815 and 0.9589 and 0.9231 and 0.9661 and 0.9881 and 0.9278 and 0.9141 | 0.02 and 0.03 and 0.09 and 0.04 and 0.01 and 0.51 and 0.28 | 1.08 and 0.73 and 1.17 and 1.18 and 0.84 and 7.06 and 3.26
